Measurements published in patent publication US20070026080A1, “Manufacturing process for tigecycline” (Wyeth, priority 2005, published 2007).

Experiment: Strength and degradation profile of tigecycline 20 mg/mL bulk solutions by reversed phase HPLC (effect of temperature, time, pH, dissolved oxygen; Runs A to O)
Format: physicochemical
Details: 8° C.
Description: The contents of the sample vials are dissolved in diluent. The sample solution is diluted, if necessary, and chromatographed on a reversed phase column using gradient elution. Impurities are determined by comparing the impurity peak areas in the sample preparation chromatogram to the average area of tigecycline peaks in the standard preparation chromatograms obtained concomitantly.
Chromatographic Column—Length about 15 cm, inside diameter about 4.6 mm, packed with Inertsil ODS2, 5 μm size particles or equivalent.
Detector—Ultraviolet spectrophotometric detector capable of operating at 248 nm with a sensitivity of about 0.5 absorbance units full scale.
The results of additional studies to investigate the effect of processing parameters such as temperature, time, and dissolved oxygen content on the purity profile of tigecycline solutions using the following materials, methods and procedures are presented in Tables A to O.
The experiments were run in plastic glove bags under normal laboratory light conditions. Plastic glove boxes will be used to control the headspace of the beakers. The batch size was 200 mL. • 1. Prepare the glove bag with a mixture of nitrogen and air to achieve an oxygen level in the solution as per the design. • 2. Place the jacketed beaker on the magnetic stirrer. Connect it to the cooler. Set the cooler to the desired set point. • 3. Add 200 mL of SWFI in to the beaker. Allow equilibrating. Measure the temperature and oxygen content. When it reaches the desired condition, add accurately weighed API and mix until dissolved. If necessary use spatula to aid dissolution. For pH adjustments, use 4 mL of either 0.1N NaOH or 0.1N HCl and 196 mL of WFI for manufacture. • 4. After complete dissolution, Transfer about 5.5 mL of Solution in vials and stopper them. These vials will be stoppered at the appropriate headspace conditions. Place the vials in appropriate temperature conditions. • 5. Sample the vials at 1, 4, 8, 10, 12 and 24 hours. Send the samples for analysis. Freeze the 10, 12 and 24 samples at −20° C. for analysis the following day. • 6. Measure pH and record color of the solution at each time point. Results
The 1-hour samples were taken directly from the beakers. Samples for later time points were collected in stoppered vials processed in the atmosphere of the bag in order to simulate the headspace conditions then placed in water baths or refrigerator to maintain there respective temperature conditions. This was done to maintain safety in the lab. Disposable plastic glove bags require constant flow of a mixture of nitrogen and air to maintain headspace oxygen level that will result in the desired dissolved oxygen (DO) content in the sample. The pH of samples was measured at each sample points.
Strength and degradation profile was analyzed by HPLC as described above. […] Degradation was slightly higher at higher temperature condition.

[1] = Run #M, pH 7.7, Oxygen = 0.1 mg/L, 10 Hrs
[2] = Run #M, pH 7.7, Oxygen = 0.1 mg/L, 12 Hrs
[3] = Run #M, pH 7.7, Oxygen = 0.1 mg/L, 24 Hrs
[4] = Run #N, pH 8.2, Oxygen = 0.1 mg/L, 1 Hrs
[5] = Run #N, pH 8.2, Oxygen = 0.1 mg/L, 1R Hrs
[6] = Run #N, pH 8.2, Oxygen = 0.1 mg/L, 4 Hrs

SMILES: CN(C)c1cc(NC(=O)CNC(C)(C)C)c(O)c2c1C[C@H]1C[C@H]3[C@H](N(C)C)C(O)=C(C(N)=O)C(=O)[C@@]3(O)C(O)=C1C2=O [Tigecycline]
- RRT 1.12 [1]: BRL (BRL means below reporting limit (meaning less than 0.05% of tigecycline peak))
- RRT 1.45 [1]: 0.07%
- RRT 1.58 [1]: BRL (BRL means below reporting limit (meaning less than 0.05% of tigecycline peak))
- RRT 1.64 Mino [1]: 0.09%
- RRT 1.67 MW = 556 [1]: (<0.05) %
- RRT 1.85 MW = 597 [1]: 0.08%
- Strength [1]: 19.240 mg/mL
- Total [1]: 0.71%
- RRT 0.12 MW = 633 [2]: BRL (BRL means below reporting limit (meaning less than 0.05% of tigecycline peak))
- RRT 0.23 MW = 572 [2]: BRL (BRL means below reporting limit (meaning less than 0.05% of tigecycline peak))
- RRT 0.50 MW = 601 [2]: BRL (BRL means below reporting limit (meaning less than 0.05% of tigecycline peak))
- RRT 0.55 MW = 583 [2]: 0.07%
- RRT 0.58 [2]: BRL (BRL means below reporting limit (meaning less than 0.05% of tigecycline peak))
- RRT 0.64 9-Amino [2]: BRL (BRL means below reporting limit (meaning less than 0.05% of tigecycline peak))
- RRT 0.74 Epimer [2]: 0.27%
- RRT 0.76 [2]: 0.05%
- RRT 0.78 MW = 557 [2]: BRL (BRL means below reporting limit (meaning less than 0.05% of tigecycline peak))
- RRT 1.12 [2]: BRL (BRL means below reporting limit (meaning less than 0.05% of tigecycline peak))
- RRT 1.45 [2]: 0.07%
- RRT 1.58 [2]: BRL (BRL means below reporting limit (meaning less than 0.05% of tigecycline peak))
- RRT 1.64 Mino [2]: 0.12%
- RRT 1.67 MW = 556 [2]: 0.07%
- RRT 1.85 MW = 597 [2]: 0.08%
- Strength [2]: 19.240 mg/mL
- Total [2]: 0.73%
- RRT 0.12 MW = 633 [3]: BRL (BRL means below reporting limit (meaning less than 0.05% of tigecycline peak))
- RRT 0.23 MW = 572 [3]: BRL (BRL means below reporting limit (meaning less than 0.05% of tigecycline peak))
- RRT 0.50 MW = 601 [3]: BRL (BRL means below reporting limit (meaning less than 0.05% of tigecycline peak))
- RRT 0.55 MW = 583 [3]: BRL (BRL means below reporting limit (meaning less than 0.05% of tigecycline peak))
- RRT 0.58 [3]: 0.08%
- RRT 0.64 9-Amino [3]: BRL (BRL means below reporting limit (meaning less than 0.05% of tigecycline peak))
- RRT 0.74 Epimer [3]: 0.29%
- RRT 0.76 [3]: BRL (BRL means below reporting limit (meaning less than 0.05% of tigecycline peak))
- RRT 0.78 MW = 557 [3]: BRL (BRL means below reporting limit (meaning less than 0.05% of tigecycline peak))
- RRT 1.12 [3]: BRL (BRL means below reporting limit (meaning less than 0.05% of tigecycline peak))
- RRT 1.45 [3]: 0.09%
- RRT 1.58 [3]: BRL (BRL means below reporting limit (meaning less than 0.05% of tigecycline peak))
- RRT 1.64 Mino [3]: 0.09%
- RRT 1.67 MW = 556 [3]: (<0.05) %
- RRT 1.85 MW = 597 [3]: 0.08%
- Strength [3]: 19.193 mg/mL
- Total [3]: 0.62%
- RRT 1.12 (Run #N, pH 8.2, Oxygen = 0.1 mg/L): BRL (BRL means below reporting limit (meaning less than 0.05% of tigecycline peak))
- RRT 0.12 MW = 633 [4]: BRL (BRL means below reporting limit (meaning less than 0.05% of tigecycline peak))
- RRT 0.23 MW = 572 [4]: BRL (BRL means below reporting limit (meaning less than 0.05% of tigecycline peak))
- RRT 0.50 MW = 601 [4]: BRL (BRL means below reporting limit (meaning less than 0.05% of tigecycline peak))
- RRT 0.55 MW = 583 [4]: BRL (BRL means below reporting limit (meaning less than 0.05% of tigecycline peak))
- RRT 0.58 [4]: 0.07%
- RRT 0.64 9-Amino [4]: BRL (BRL means below reporting limit (meaning less than 0.05% of tigecycline peak))
- RRT 0.74 Epimer [4]: 0.20%
- RRT 0.76 [4]: BRL (BRL means below reporting limit (meaning less than 0.05% of tigecycline peak))
- RRT 0.78 MW = 557 [4]: BRL (BRL means below reporting limit (meaning less than 0.05% of tigecycline peak))
- RRT 1.12 [4]: BRL (BRL means below reporting limit (meaning less than 0.05% of tigecycline peak))
- RRT 1.45 [4]: 0.07%
- RRT 1.58 [4]: BRL (BRL means below reporting limit (meaning less than 0.05% of tigecycline peak))
- RRT 1.64 Mino [4]: (<0.05) %
- RRT 1.67 MW = 556 [4]: BRL (BRL means below reporting limit (meaning less than 0.05% of tigecycline peak))
- RRT 1.85 MW = 597 [4]: 0.11%
- Strength [4]: 19.343 mg/mL
- Total [4]: 0.46%
- RRT 0.12 MW = 633 [5]: BRL (BRL means below reporting limit (meaning less than 0.05% of tigecycline peak))
- RRT 0.23 MW = 572 [5]: BRL (BRL means below reporting limit (meaning less than 0.05% of tigecycline peak))
- RRT 0.50 MW = 601 [5]: BRL (BRL means below reporting limit (meaning less than 0.05% of tigecycline peak))
- RRT 0.55 MW = 583 [5]: 0.06%
- RRT 0.58 [5]: 0.06%
- RRT 0.64 9-Amino [5]: BRL (BRL means below reporting limit (meaning less than 0.05% of tigecycline peak))
- RRT 0.74 Epimer [5]: 0.29%
- RRT 0.76 [5]: 0.05%
- RRT 0.78 MW = 557 [5]: BRL (BRL means below reporting limit (meaning less than 0.05% of tigecycline peak))
- RRT 1.45 [5]: 0.09%
- RRT 1.58 [5]: BRL (BRL means below reporting limit (meaning less than 0.05% of tigecycline peak))
- RRT 1.64 Mino [5]: 0.08%
- RRT 1.67 MW = 556 [5]: BRL (BRL means below reporting limit (meaning less than 0.05% of tigecycline peak))
- RRT 1.85 MW = 597 [5]: 0.09%
- Strength [5]: 19.415 mg/mL
- Total [5]: 0.72%
- RRT 0.12 MW = 633 [6]: BRL (BRL means below reporting limit (meaning less than 0.05% of tigecycline peak))
- RRT 0.23 MW = 572 [6]: BRL (BRL means below reporting limit (meaning less than 0.05% of tigecycline peak))
- RRT 0.50 MW = 601 [6]: BRL (BRL means below reporting limit (meaning less than 0.05% of tigecycline peak))
- RRT 0.55 MW = 583 [6]: BRL (BRL means below reporting limit (meaning less than 0.05% of tigecycline peak))
- RRT 0.58 [6]: 0.07%
- RRT 0.64 9-Amino [6]: BRL (BRL means below reporting limit (meaning less than 0.05% of tigecycline peak))
- RRT 0.74 Epimer [6]: 0.21%
- RRT 0.76 [6]: BRL (BRL means below reporting limit (meaning less than 0.05% of tigecycline peak))
